Results published in patent US8524716B2, “Macrocyclic indoles as hepatitis C virus inhibitors” (priority 2007, dated 2013).
Read-outs that look alike come from different tables or passages of the source.

Tests used:
[1] = rcm bond, Hoveyda-Grubbs 1st generation catalyst, 80.0 °C
[2] = tested on: HCV replicons (NS3-NS5B regions of HCV type 1b) in Huh-Luc cells; test: HCV replicon assay in Huh-7 luc/neo (Huh-Luc) cells, luciferase readout; type: cell-based; details: Hepatitis C virus, Huh-7, 72 h, three days incubation, luciferase activity
Excerpt: The compounds of formula (I) were examined for activity in the inhibition of HCV RNA replication in a cellular assay. […] The cellular assay was based on a bicistronic expression construct, as described by Lohmann et al. (1999) Science vol. 285 pp. 110-113 with modifications described by Krieger et al. (2001) Journal of Virology 75: 4614-4624, in a multi-target screening strategy. In essence, the method was as follows.
The assay utilized the stably transfected cell line Huh-7 luc/neo (hereafter referred to as Huh-Luc). This cell line harbors an RNA encoding a bicistronic expression construct comprising the wild type NS3-NS5B regions of HCV type 1b translated from an Internal Ribosome Entry Site (IRES) from encephalomyocarditis virus (EMCV), preceded by a reporter portion (firefly luciferase), and a selectable marker portion (neo^R, neomycine phosphotransferase). The construct is bordered by 5′ and 3′ NTRs (non-translated regions) from HCV type 1b. Continued culture of the replicon cells in the presence of G418 (neo^R) is dependent on the replication of the HCV RNA. The stably transfected replicon cells that express HCV RNA, which replicates autonomously and to high levels, encoding inter alia luciferase, were used for screening the antiviral compounds.
The replicon cells were plated in 384 well plates in the presence of the test and control compounds which were added in various concentrations. Following an incubation of three days, HCV replication was measured by assaying luciferase activity (using standard luciferase assay substrates and reagents and a Perkin Elmer ViewLux™ ultraHTS microplate imager). […] The inhibitory activity of the compound on luciferase activity was monitored on the Huh-Luc cells, enabling a dose-response curve for each test compound. EC50 values were then calculated, which value represents the amount of the compound required to decrease the level of detected luciferase activity by 50%, or more specifically, the ability of the genetically linked HCV replicon RNA to replicate.

HCV NS5B = HCV NS5B (Hepatitis C virus genotype 1b (strain HC-J4), UniProt O92972); test: biochemical; type: biochemical; details: 100 nM enzyme, [3H]GTP incorporation, 2 h at 25° C.; read-out: IC50 (μM) Enzymatic assay
Sequence of HCV NS5B (O92972 2420-3010 limits assumed): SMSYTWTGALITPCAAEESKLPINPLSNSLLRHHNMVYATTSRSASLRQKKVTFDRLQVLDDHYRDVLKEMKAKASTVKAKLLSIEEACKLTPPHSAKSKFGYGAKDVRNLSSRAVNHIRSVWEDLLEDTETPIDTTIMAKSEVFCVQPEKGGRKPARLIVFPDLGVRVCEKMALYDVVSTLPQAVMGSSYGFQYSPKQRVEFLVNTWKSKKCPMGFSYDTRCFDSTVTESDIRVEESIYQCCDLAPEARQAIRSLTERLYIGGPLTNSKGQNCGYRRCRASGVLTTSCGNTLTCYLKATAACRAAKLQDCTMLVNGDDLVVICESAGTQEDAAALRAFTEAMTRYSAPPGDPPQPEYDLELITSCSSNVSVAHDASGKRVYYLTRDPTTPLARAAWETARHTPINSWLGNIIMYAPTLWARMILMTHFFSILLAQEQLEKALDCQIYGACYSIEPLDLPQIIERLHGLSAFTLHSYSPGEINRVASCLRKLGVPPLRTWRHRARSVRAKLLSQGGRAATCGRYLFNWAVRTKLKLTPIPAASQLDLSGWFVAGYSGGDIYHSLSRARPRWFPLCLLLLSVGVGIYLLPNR
Procedure: The cDNA encoding NS5B amino acid 1-570 (HC-J4, genotype 1b, pCV-J4L6S, genebank accession number AF054247) was subcloned into the Nhe I and Xho I restriction sites of pET-21b. Expression of the subsequent His-tagged C-terminal 21 amino acid deleted NS5B was performed as follows:
The NS5B expression construct was transformed into E. coli BL21(DE3) (Novagen, Madison, Wis.). Five milliliters of LB-medium supplemented with ampicillin (50 μg/mL) was inoculated with one colony. When the pre-culture reached an optical density of 0.6 measured at 600 nm, it was transferred to fresh LB-medium supplemented with ampicillin, at a ratio of 1:200. Cells were grown to an optical density at 600 nm of 0.6, after which the expression cultures were shifted to a growth temperature of 20° C. following induction with isopropyl-1-thio-β-D-galactopyranoside and MgCl2 at a final concentration of 0.4 mM and 10 μM, respectively. After ten hours of induction, cells were harvested by centrifugation and resuspended in 20 mM Tris-HCl, pH 7.5, 300 mM NaCl, 10% glycerol, 0.1% NP40, 4 mM MgCl2, 5 mM DTT supplemented with EDTA-free Complete Protease Inhibitor (Roche, Basel, Switzerland). Cell suspensions were disrupted by sonication and incubated with 10-15 mg/L of DNase I (Roche, Basel, Switzerland) for 30 minutes. Cell debris was removed through ultracentrifugation at 30,000×g for 1 hour and clarified cell lysate was flash frozen and stored at −80° C. prior to purification.
Clarified cell lysate was thawed and subsequently loaded onto a 5 mL pre-packed HisTrap FF column equilibrated with 25 mM HEPES, pH 7.5, 500 mM NaCl, 10% glycerol and 5 mM DTT. Proteins were eluted with 500 mM imidazole at a flow rate of 1 mL/min. Fractions containing the protein of interest were applied onto a pre-packed 26/10 HiPrep Desalting Column equilibrated with 25 mM HEPES, pH 7.5, 150 mM NaCl, 10% glycerol and 5 mM DTT. The buffer-exchanged NS5B peak was then applied onto a 20 mL Poly-U Sepharose column. Protein was eluted with an increasing salt gradient and fractions collected. Protein purity was assessed on Nu-PAGE pre-cast gels (Invitrogen, Carlsbad, Calif.). Purified NS5B samples were concentrated using Centri-Prep concentrators (Millipore, Billerica, Mass., USA) and protein concentrations were determined by Bradford assay (Pierce, Rockford, Ill., USA).
Measurement of HCV NS5B polymerization activity was performed by evaluating the amount of radio labeled GTP incorporated by the enzyme in a newly synthesized RNA using heteropolymeric RNA template/primer. The high-throughput RNA dependent RNA polymerase (RdRp) assay was carried out in 384-well plates using 100 nM enzyme, 300 nM 5′-biotinylated oligo(rG13)/poly(rC) primer-template, 600 nM of GTP, and 0.1 μCi of [^3H]GTP in 25 mM Tris-HCl, pH 7.5, 5 mM MgCl2, 25 mM KCl, 17 mM NaCl and 3 mM of dithiothreitol (DTT). Test compounds were dissolved in DMSO. The test compounds were added to the preformed polymerase-template complex, and incubated at room temperature for 15 min before the addition of nucleoside triphosphates (NTP). The 30 μl reaction was terminated after 2 h at 25° C. upon addition of 30 μl A PVT-SPA beads (Amersham Biosciences RPNQ0009, 5 mg/ml in 0.5 M EDTA).

COc1ccc(-c2ccc(Cl)cc2)c(-c2ccc3cc(-c4c(C5CCCCC5)c5ccc6cc5n4CC(=O)NCCC=CCCNC6=O)ccc3n2)c1
ring closure, isolated yield (from C=CCCNC(=O)c1cc(C)c2c(C3CCCCC3)c(-c3ccc4nc(-c5cc(OC)ccc5-c5ccc(Cl)cc5)ccc4c3)n(C(=O)NCCC=C)c2c1, rcm bond, 15-membered ring, Hoveyda-Grubbs 1st gen (0.42 eq), DCE, 1.32 mM, 80.0 °C): 30% | ring closure, yield of all isomers ([1]; from C=CCCNC(=O)Cn1c(-c2ccc3nc(-c4cc(OC)ccc4-c4ccc(Cl)cc4)ccc3c2)c(C2CCCCC2)c2ccc(C(=O)NCCC=C)cc21, DCE, 1.32 mM): 30%

O=C1Cn2c(-c3ccc(OCc4cc(N5CCCC5=O)ccc4N4CCOCC4)cc3)c(C3CCCCC3)c3ccc(cc32)C(=O)NCCC=CCCN1
ring closure, isolated yield (from C=CCCNC(=O)Cn1c(-c2ccc(OCc3cc(N4CCCC4=O)ccc3N3CCOCC3)cc2)c(C2CCCCC2)c2ccc(C(=O)NCCC=C)cc21, rcm bond, 15-membered ring, Hoveyda-Grubbs 1st gen (2 portions), DCE, 80.0 °C): 25%

O=C1Cn2c(-c3ccoc3)c(C3CCCCC3)c3ccc(cc32)C(=O)NCCC=CCCN1
ring closure, yield of all isomers ([1]; from C=CCCNC(=O)Cn1c(-c2ccoc2)c(C2CCCCC2)c2ccc(C(=O)NCCC=C)cc21, 1,2-dichloroethane, 1.585 mM, 15.0 h): 22%

COc1ccc(-c2c(C3CCCCC3)c3ccc4cc3n2CC(=O)NCCCCCN(C)S(=O)(=O)NC4=O)cc1 [Cpd 26, 18-Cyclohexyl-19-(4-methoxy-phenyl)-10-methyl-11,11-dioxo-11λ^6-thia-1,4,10,12-tetraaza-tricyclo[12.5.2.017,20]henicosa-14(21),15,17(20),18-tetraene-3,13-dione]
ring closure, isolated yield (amide bond, 16-membered ring, CDI, CH3CN, 2 steps): 31% | EC50 [2]: 0.35 µM

CS(=O)(=O)N1CCN(c2ccc([N+](=O)[O-])cc2COc2ccc(-c3c(C4CCCCC4)c4ccc5cc4n3CC(=O)NCCC=CCCNC5=O)cc2)CC1
ring closure, isolated yield (rcm bond, 15-membered ring, Hoveyda-Grubbs 1st gen (2 portions), DCE, 80.0 °C): 70%

CN1CCCCN(C)S(=O)(=O)NC(=O)c2ccc3c(C4CCCCC4)c(-c4ccc(Cl)cc4)n(c3c2)CC1=O [Cpd 24, 18-(4-Chloro-phenyl)-17-cyclohexyl-4,9-dimethyl-10,10-dioxo-10λ^6-thia-1,4,9,11-tetraaza-tricyclo[11.5.2.016,19]icosa-13(20),14,16(19),17-tetraene-3,12-dione]
ring closure, isolated yield (amide bond, 15-membered ring): 12% | EC50 [2]: 0.53 µM

O=C1Cn2c(-c3ccoc3)c(C3CCCCC3)c3ccc(cc32)C(=O)NCCCCCCN1 [Cpd 2, 17-Cyclohexyl-18-(furan-3-yl)-1,4,11-triaza-tricyclo[11.5.2.0^16,19]icosa-13(20),14,16(19),17-tetraene-3,12-dione]
IC50 (HCV NS5B): 9.5 µM | EC50 [2]: 4.3 µM
